Laboratory results taken from ChEMBL document CHEMBL3098015, “Synthesis and evaluation of 1-cyclopropyl-6-fluoro-1,4-dihydro-4-oxo-7-(4-(2-(4-substitutedpiperazin-1-yl)acetyl)piperazin-1-yl)quinoline-3-carboxylic acid derivatives as anti-tubercular and antibacterial agents” (Eur J Med Chem, 2014).
≈ marks a conversion by molar mass, not a printed value.

Key:
[1] = system: Mycobacterium tuberculosis; test: Antimicrobial activity against Mycobacterium tuberculosis H37Rv ATCC 27294 after 3 weeks by microbroth dilution method; format: functional; conditions: H37Rv ATCC 27294, 504 h
[2] = system: Staphylococcus aureus; test: Antimicrobial activity against Staphylococcus aureus ATCC 29213 after 24 hrs by broth microdilution method; format: functional; conditions: ATCC 29213, 24 h
[3] = system: Escherichia coli; test: Antimicrobial activity against Escherichia coli ATCC 25922 after 24 hrs by broth microdilution method; format: functional; conditions: ATCC 25922, 24 h
[4] = Selectivity index, ratio of IC50 for mouse RAW264.7 cells to MIC for Mycobacterium tuberculosis H37Rv ATCC 27294; format: toxicity; conditions: read-out: Selectivity Index
[5] = system: RAW264.7; test: Cytotoxicity against mouse RAW264.7 cells after 72 hrs by MTT assay; format: cell-based; conditions: RAW264.7, 72 h
[6] = Cytotoxicity against mouse RAW264.7 cells at 50 uM after 72 hrs by MTT assay; format: cell-based; conditions: read-out: INH
[7] = Inhibition of DNA gyrase (unknown origin) using relaxed pBR322 as substrate after 30 mins by agarose gel electrophoresis
[8] = system: Staphylococcus aureus; test: Bactericidal activity against Staphylococcus aureus ATCC 29213 assessed as 3 log reduction in inoculum size after 24 hrs by broth microdilution method relative to control; format: functional; conditions: ATCC 29213, 24 h
[9] = system: Escherichia coli; test: Bactericidal activity against Escherichia coli ATCC 25922 assessed as 3 log reduction in inoculum size after 24 hrs by broth microdilution method relative to control; format: functional; conditions: ATCC 25922, 24 h

Compound | MIC99 [1] | MIC99 [2] | MIC99 [3] | selectivity ratio [4] | IC50 [5] | cytotoxicity at 72 h, 50 µM [6] | IC50 [7] | MBC [8] | MBC [9]
O=C(O)c1cn(C2CC2)c2cc(N3CCN(C(=O)CN4CCN(C(c5ccc(F)cc5)c5ccc(F)cc5)CC4)CC3)c(F)cc2c1=O | > 97.2 µM | 1.51 µM (≈ 0.996 µg/mL) | > 24.3 µM | – | – | – | – | – | –
O=C(O)c1cn(C2CC2)c2cc(N3CCN(C(=O)CN4CCN(c5ccc(F)c(F)c5)CC4)CC3)c(F)cc2c1=O | > 113 µM | > 225 µM | > 225 µM | – | – | – | – | – | –
O=C(O)c1cn(C2CC2)c2cc(N3CCN(C(=O)CN4CCN(C(c5ccccc5)c5ccccc5)CC4)CC3)c(F)cc2c1=O | 25.7 µM (≈ 16 µg/mL) | 0.8 µM (≈ 0.499 µg/mL) | 12.8 µM (≈ 8.01 µg/mL) | 3.75 | 96.6 µM | 25.9% | – | – | –
N#Cc1ccccc1N1CCN(CC(=O)N2CCN(c3cc4c(cc3F)c(=O)c(C(=O)O)cn4C3CC3)CC2)CC1 | > 115 µM | 0.89 µM (≈ 0.497 µg/mL) | 3.58 µM (≈ 2 µg/mL) | – | – | – | – | – | –
O=C(O)c1cn(C2CC2)c2cc(N3CCN(C(=O)CN4CCN(c5ccccn5)CC4)CC3)c(F)cc2c1=O | > 120 µM | 1.87 µM (≈ 1 µg/mL) | 3.75 µM (≈ 2 µg/mL) | – | – | – | – | – | –
O=C(O)c1cn(C2CC2)c2cc(N3CCN(C(=O)CN4CCN(c5ncccn5)CC4)CC3)c(F)cc2c1=O | 59.9 µM (≈ 32.1 µg/mL) | 1.87 µM (≈ 1 µg/mL) | 3.74 µM (≈ 2 µg/mL) | 3.79 | 227 µM | 11% | – | – | –
COc1ccc(N2CCN(CC(=O)N3CCN(c4cc5c(cc4F)c(=O)c(C(=O)O)cn5C4CC4)CC3)CC2)cc1OC | > 108 µM | 1.68 µM (≈ 0.997 µg/mL) | 6.75 µM (≈ 4.01 µg/mL) | – | – | – | – | – | –
O=C(O)c1cn(C2CC2)c2cc(N3CCN(C(=O)CN4CCN(c5cccc(O)c5)CC4)CC3)c(F)cc2c1=O | > 117 µM | 1.82 µM (≈ 1 µg/mL) | 3.64 µM (≈ 2 µg/mL) | – | – | – | – | – | –
CN(C)CCN1CCN(CC(=O)N2CCN(c3cc4c(cc3F)c(=O)c(C(=O)O)cn4C3CC3)CC2)CC1 | 121 µM (≈ 64.2 µg/mL) | 7.58 µM (≈ 4.01 µg/mL) | 7.58 µM (≈ 4.01 µg/mL) | – | – | – | – | – | –
O=C(O)c1cn(C2CC2)c2cc(N3CCN(C(=O)CN4CCN(c5cccc(C(F)(F)F)c5)CC4)CC3)c(F)cc2c1=O | > 107 µM | 0.83 µM (≈ 0.499 µg/mL) | 6.66 µM (≈ 4.01 µg/mL) | – | – | – | – | – | –
CC(=O)N1CCN(CC(=O)N2CCN(c3cc4c(cc3F)c(=O)c(C(=O)O)cn4C3CC3)CC2)CC1 | 16.1 µM (≈ 8.02 µg/mL) | 4.01 µM (≈ 2 µg/mL) | 16.1 µM (≈ 8.02 µg/mL) | 9.59 | 154 µM | 16.2% | – | – | –
O=C(O)c1cn(C2CC2)c2cc(N3CCN(C(=O)CN4CCN(Cc5ccccc5)CC4)CC3)c(F)cc2c1=O | 7.32 µM (≈ 4.01 µg/mL) | 1.83 µM (≈ 1 µg/mL) | 1.83 µM (≈ 1 µg/mL) | 22 | 161 µM | 15.5% | 7 µM | – | –
O=C(O)c1cn(C2CC2)c2cc(N3CCN(C(=O)CN4CCN(c5ccccc5)CC4)CC3)c(F)cc2c1=O | > 120 µM | 0.93 µM (≈ 0.496 µg/mL) | 1.87 µM (≈ 0.998 µg/mL) | – | – | – | – | 7.51 µM (≈ 4.01 µg/mL) | 7.51 µM (≈ 4.01 µg/mL)
O=C(O)c1cn(C2CC2)c2cc(N3CCN(C(=O)CN4CCN(c5ccccc5Cl)CC4)CC3)c(F)cc2c1=O | 28.2 µM (≈ 16 µg/mL) | 0.44 µM (≈ 0.25 µg/mL) | 0.88 µM (≈ 0.5 µg/mL) | 5.92 | 167 µM | 14.9% | – | 0.88 µM (≈ 0.5 µg/mL) | 7.06 µM (≈ 4.01 µg/mL)
N#Cc1ccc(N2CCN(CC(=O)N3CCN(c4cc5c(cc4F)c(=O)c(C(=O)O)cn5C4CC4)CC3)CC2)cc1 | > 115 µM | 7.17 µM (≈ 4.01 µg/mL) | 7.17 µM (≈ 4.01 µg/mL) | – | – | – | – | – | –
O=C(O)c1cn(C2CC2)c2cc(N3CCN(C(=O)CN4CCN(c5ccc([N+](=O)[O-])cc5)CC4)CC3)c(F)cc2c1=O | > 111 µM | 6.92 µM (≈ 4 µg/mL) | 13.8 µM (≈ 8.01 µg/mL) | – | – | – | – | – | –
COc1cccc(N2CCN(CC(=O)N3CCN(c4cc5c(cc4F)c(=O)c(C(=O)O)cn5C4CC4)CC3)CC2)c1 | > 114 µM | 0.88 µM (≈ 0.496 µg/mL) | 3.55 µM (≈ 2 µg/mL) | – | – | – | – | – | –
Cc1cccc(N2CCN(CC(=O)N3CCN(c4cc5c(cc4F)c(=O)c(C(=O)O)cn5C4CC4)CC3)CC2)c1 | 29.3 µM (≈ 16 µg/mL) | 1.83 µM (≈ 1 µg/mL) | 7.32 µM (≈ 4.01 µg/mL) | 5.26 | 154 µM | 16.2% | – | – | –
CC(c1ccccc1)N1CCN(CC(=O)N2CCN(c3cc4c(cc3F)c(=O)c(C(=O)O)cn4C3CC3)CC2)CC1 (stereo not drawn) | 28.6 µM (≈ 16 µg/mL) | 1.78 µM (≈ 1 µg/mL) | 3.56 µM (≈ 2 µg/mL) | 5.17 | 148 µM | 16.9% | – | – | –
CCN1CCN(CC(=O)N2CCN(c3cc4c(cc3F)c(=O)c(C(=O)O)cn4C3CC3)CC2)CC1 | 33 µM (≈ 16 µg/mL) | 16.5 µM (≈ 8.02 µg/mL) | 16.5 µM (≈ 8.02 µg/mL) | 5.68 | 188 µM | 13.3% | – | – | –
CN1CCN(CC(=O)N2CCN(c3cc4c(cc3F)c(=O)c(C(=O)O)cn4C3CC3)CC2)CC1 | 136 µM (≈ 64.2 µg/mL) | 34 µM (≈ 16 µg/mL) | 34 µM (≈ 16 µg/mL) | – | – | – | – | – | –
O=C(O)c1cn(C2CC2)c2cc(N3CCN(C(=O)CN4CCN(c5ccc(Cl)cc5)CC4)CC3)c(F)cc2c1=O | 113 µM (≈ 64.2 µg/mL) | 1.76 µM (≈ 1 µg/mL) | 7.06 µM (≈ 4.01 µg/mL) | – | – | – | – | – | –
O=C(O)c1cn(C2CC2)c2cc(N3CCNCC3)c(F)cc2c1=O [CIPROFLOXACIN] | – | 0.37 µM (≈ 0.123 µg/mL) | 0.021 µM (≈ 0.00696 µg/mL) | – | – | – | – | – | –
CO[C@H]1/C=C/O[C@@]2(C)Oc3c(C)c(O)c4c(O)c(c(/C=N/N5CCN(C)CC5)c(O)c4c3C2=O)NC(=O)/C(C)=C\C=C\[C@H](C)[C@H](O)[C@@H](C)[C@@H](O)[C@@H](C)[C@H](OC(C)=O)[C@@H]1C [RIFAMPIN] | 0.14 µM (≈ 0.115 µg/mL) | – | – | – | – | – | – | – | –
